From PubChem BioAssay (NCI)
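Grown in 96-well plates, cells were treated for 48 hours with each compound at five concentrations. Insufficient inhibition: endpoint recorded as highest concentration tested. GI50: concentration for 50% inhibition of growth. Definition used: TGI = concentration required for complete inhibition of growth.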

Key:
Assay in all cases: inhibition of tumour cell growth, NCI panel, 48 h
M14 melanoma = test system: M14 melanoma
SNB-75 CNS = test system: SNB-75 CNS
K-562 leukemia = test system: K-562 leukemia
SNB-19 CNS = test system: SNB-19 CNS
MALME-3M melanoma = test system: MALME-3M melanoma
TK-10 renal = test system: TK-10 renal
CAKI-1 renal = test system: CAKI-1 renal
NCI/ADR-RES ovarian = test system: NCI/ADR-RES ovarian
HCT-15 colon = test system: HCT-15 colon
SF-268 CNS = test system: SF-268 CNS
SK-OV-3 ovarian = test system: SK-OV-3 ovarian
SK-MEL-5 melanoma = test system: SK-MEL-5 melanoma
DU-145 prostate = test system: DU-145 prostate
CCRF-CEM leukemia = test system: CCRF-CEM leukemia
RXF 393 renal = test system: RXF 393 renal
NCI-H23 lung = test system: NCI-H23 lung
NCI-H522 lung = test system: NCI-H522 lung
SF-539 CNS = test system: SF-539 CNS
UACC-257 melanoma = test system: UACC-257 melanoma
HCT-116 colon = test system: HCT-116 colon
A498 renal = test system: A498 renal
MDA-MB-435 = test system: MDA-MB-435
NCI-H460 lung = test system: NCI-H460 lung
OVCAR-8 ovarian = test system: OVCAR-8 ovarian
MOLT-4 leukemia = test system: MOLT-4 leukemia
UO-31 renal = test system: UO-31 renal
ACHN renal = test system: ACHN renal
786-0 renal = test system: 786-0 renal
HOP-92 NSCLC = test system: HOP-92 NSCLC
EKVX NSCLC = test system: EKVX NSCLC
KM12 colon = test system: KM12 colon
HOP-62 NSCLC = test system: HOP-62 NSCLC
HT29 colon = test system: HT29 colon
PC-3 prostate = test system: PC-3 prostate
T-47D breast = test system: T-47D breast
OVCAR-3 ovarian = test system: OVCAR-3 ovarian
HS 578T breast = test system: HS 578T breast
SK-MEL-28 melanoma = test system: SK-MEL-28 melanoma
SW-620 colon = test system: SW-620 colon
OVCAR-4 ovarian = test system: OVCAR-4 ovarian
LOX IMVI melanoma = test system: LOX IMVI melanoma
COLO 205 colon = test system: COLO 205 colon
IGROV1 ovarian = test system: IGROV1 ovarian
OVCAR-5 ovarian = test system: OVCAR-5 ovarian
SR leukemia = test system: SR leukemia
SF-295 CNS = test system: SF-295 CNS
U251 CNS = test system: U251 CNS
UACC-62 melanoma = test system: UACC-62 melanoma
MDA-MB-231 breast = test system: MDA-MB-231 breast
SK-MEL-2 melanoma = test system: SK-MEL-2 melanoma
BT-549 breast = test system: BT-549 breast
HCC-2998 colon = test system: HCC-2998 colon
MCF7 breast = test system: MCF7 breast
SN12C renal = test system: SN12C renal
RPMI-8226 leukemia = test system: RPMI-8226 leukemia
A549 NSCLC = test system: A549 NSCLC

CC(C)CCC(=O)[C@@H](C)[C@H]1[C@@H](OC2OCC(O)C(O)C2NS(C)(=O)=O)C[C@H]2[C@@H]3CC=C4C[C@@H](O)CC[C@]4(C)[C@H]3CC[C@]12C (some centres not stated)
GI50 (M14 melanoma): 0.512 µM | TGI (M14 melanoma): 1.58 µM | GI50 (SNB-75 CNS): 0.571 µM | TGI (SNB-75 CNS): 9.58 µM | GI50 (K-562 leukemia): 1.37 µM | TGI (K-562 leukemia): 5.55 µM | GI50 (SNB-19 CNS): 1.34 µM | TGI (SNB-19 CNS): 6.77 µM | GI50 (MALME-3M melanoma): 0.91 µM | TGI (MALME-3M melanoma): 4.29 µM | GI50 (TK-10 renal): 6.63 µM | TGI (TK-10 renal): 23.5 µM | GI50 (CAKI-1 renal): 1.16 µM | TGI (CAKI-1 renal): 5.56 µM | GI50 (NCI/ADR-RES ovarian): 9.82 µM | TGI (NCI/ADR-RES ovarian): > 40 µM | GI50 (HCT-15 colon): 2.23 µM | TGI (HCT-15 colon): 9.44 µM | GI50 (SF-268 CNS): 1.25 µM | TGI (SF-268 CNS): 6.99 µM | GI50 (SK-OV-3 ovarian): 1.27 µM | TGI (SK-OV-3 ovarian): 5.04 µM | GI50 (SK-MEL-5 melanoma): 1.26 µM | TGI (SK-MEL-5 melanoma): 4.51 µM | GI50 (DU-145 prostate): 3.42 µM | TGI (DU-145 prostate): 20.4 µM | GI50 (CCRF-CEM leukemia): 0.424 µM | TGI (CCRF-CEM leukemia): 2.47 µM | GI50 (RXF 393 renal): 0.178 µM | TGI (RXF 393 renal): 0.783 µM | GI50 (NCI-H23 lung): 3.3 µM | TGI (NCI-H23 lung): 12.7 µM | GI50 (NCI-H522 lung): 5.05 µM | TGI (NCI-H522 lung): 12.5 µM | GI50 (SF-539 CNS): 0.202 µM | TGI (SF-539 CNS): 1.11 µM | GI50 (UACC-257 melanoma): 0.922 µM | TGI (UACC-257 melanoma): 2.31 µM | GI50 (HCT-116 colon): 0.715 µM | TGI (HCT-116 colon): 5.74 µM | GI50 (A498 renal): 0.724 µM | TGI (A498 renal): 1.7 µM | GI50 (MDA-MB-435): 0.88 µM | TGI (MDA-MB-435): 2.16 µM | GI50 (NCI-H460 lung): 1.42 µM | TGI (NCI-H460 lung): 4.86 µM | GI50 (OVCAR-8 ovarian): 7.63 µM | TGI (OVCAR-8 ovarian): 37.2 µM | GI50 (MOLT-4 leukemia): 0.827 µM | TGI (MOLT-4 leukemia): 2.57 µM | GI50 (UO-31 renal): 0.782 µM | TGI (UO-31 renal): 2.12 µM | GI50 (ACHN renal): 2.15 µM | TGI (ACHN renal): 11.6 µM | GI50 (786-0 renal): 0.181 µM | TGI (786-0 renal): 0.93 µM | GI50 (HOP-92 NSCLC): 3.02 µM | TGI (HOP-92 NSCLC): 10.6 µM | GI50 (EKVX NSCLC): 1.46 µM | TGI (EKVX NSCLC): 8.85 µM | GI50 (KM12 colon): 2.77 µM | TGI (KM12 colon): 11 µM | GI50 (HOP-62 NSCLC): 1.26 µM | TGI (HOP-62 NSCLC): 6.34 µM | GI50 (HT29 colon): 3.02 µM | TGI (HT29 colon): 12.5 µM | GI50 (PC-3 prostate): 0.982 µM | TGI (PC-3 prostate): 4.16 µM | GI50 (T-47D breast): 3.93 µM | TGI (T-47D breast): 23 µM | GI50 (OVCAR-3 ovarian): 2.72 µM | TGI (OVCAR-3 ovarian): 10.3 µM | GI50 (HS 578T breast): 0.423 µM | TGI (HS 578T breast): 3.41 µM | GI50 (SK-MEL-28 melanoma): 0.53 µM | TGI (SK-MEL-28 melanoma): 1.53 µM | GI50 (SW-620 colon): 1.54 µM | TGI (SW-620 colon): 6.02 µM | GI50 (OVCAR-4 ovarian): 5.12 µM | TGI (OVCAR-4 ovarian): 28.6 µM | GI50 (LOX IMVI melanoma): 1.19 µM | TGI (LOX IMVI melanoma): 5.22 µM | GI50 (COLO 205 colon): 1.42 µM | TGI (COLO 205 colon): 5.92 µM | GI50 (IGROV1 ovarian): 2.22 µM | TGI (IGROV1 ovarian): > 40 µM | GI50 (OVCAR-5 ovarian): 4.89 µM | TGI (OVCAR-5 ovarian): 16.8 µM | GI50 (SR leukemia): 1.03 µM | TGI (SR leukemia): 8.39 µM | GI50 (SF-295 CNS): 0.141 µM | TGI (SF-295 CNS): 0.595 µM | GI50 (U251 CNS): 0.901 µM | TGI (U251 CNS): 7.8 µM | GI50 (UACC-62 melanoma): 0.79 µM | TGI (UACC-62 melanoma): 1.95 µM | GI50 (MDA-MB-231 breast): 2 µM | TGI (MDA-MB-231 breast): 8.65 µM | GI50 (SK-MEL-2 melanoma): 0.739 µM | TGI (SK-MEL-2 melanoma): 2.27 µM | GI50 (BT-549 breast): 0.245 µM | TGI (BT-549 breast): 4.93 µM | GI50 (HCC-2998 colon): 5.04 µM | TGI (HCC-2998 colon): 11.7 µM | GI50 (MCF7 breast): 1.26 µM | TGI (MCF7 breast): 5.73 µM | GI50 (SN12C renal): 8.36 µM | TGI (SN12C renal): > 40 µM | GI50 (RPMI-8226 leukemia): 0.12 µM | TGI (RPMI-8226 leukemia): 0.419 µM | GI50 (A549 NSCLC): 3.55 µM | TGI (A549 NSCLC): 11.5 µM
